13 compounds from PubChem BioAssay (NCI) can be followed below.

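96-well plates; 48 h exposure; 5 concentrations. Endpoints by linear interpolation between flanking doses. Not reached: highest tested concentration assigned. GI50 is the concentration that inhibits growth by half. At the TGI there is no net growth.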 Where a SMILES comes first, the peptide text is derived from it. [ ]: non-standard residue; d: D form. Phe(4-Cl) = N[CH](Cc1ccc(Cl)cc1)C(=O)O

Test systems include UACC-257 melanoma; SK-MEL-5 melanoma; SK-MEL-2 melanoma; HOP-92 NSCLC; CCRF-CEM leukemia; TK-10 renal; SF-539 CNS; SW-620 colon; A498 renal; NCI-H522 lung.
Test in all cases: NCI tumour cell line growth inhibition, 48 h

For the compound `N.N.N.N.N.O=C([O-])c1nn[n-]n1.[Cl-].[Co+3]`, the GI50 in the assay with UACC-257 melanoma, in the assay with SK-MEL-5 melanoma, with SK-MEL-2 melanoma, in the assay on HOP-92 NSCLC, in the assay with CCRF-CEM leukemia and in the assay on TK-10 renal was over 100 µM each time. The GI50 in the assay with SF-539 CNS and in the assay on SW-620 colon was over 100 µM throughout. Besides, the TGI with UACC-257 melanoma, in the assay with SK-MEL-5 melanoma, with SK-MEL-2 melanoma, with HOP-92 NSCLC, in the assay on CCRF-CEM leukemia and in the assay on TK-10 renal was over 100 µM each time. In addition, the TGI in the assay with SF-539 CNS and with SW-620 colon was over 100 µM throughout.
In the case of `NC1=NN(c2ccccc2)C(=O)C1C(=O)CCC(=O)Nc1cccc(C(F)(F)F)c1` (configuration not stated), the TGI with UACC-257 melanoma, with SK-MEL-5 melanoma, with SK-MEL-2 melanoma, in the assay with HOP-92 NSCLC, in the assay on CCRF-CEM leukemia and in the assay with TK-10 renal was over 100 µM in each case. Moreover, the TGI in the assay with SF-539 CNS and in the assay with SW-620 colon was over 100 µM throughout.
Turning to `CCN(CC)CCN1CC(O)=C(c2nc(-c3ccc(Cl)cc3)cs2)C1=N`, the GI50 is 1.82 µM in the assay on UACC-257 melanoma; 1.72 µM in the assay with A498 renal; 1.63 µM with SK-MEL-5 melanoma; 16.9 µM in the assay with SK-MEL-2 melanoma; 1.49 µM with HOP-92 NSCLC; 2 µM in the assay with CCRF-CEM leukemia. In addition, the GI50 in the assay on TK-10 renal was 2.86 µM; in the assay with SF-539 CNS, 1.55 µM; in the assay on SW-620 colon, 1.91 µM. Besides, the TGI was 3.51 µM with UACC-257 melanoma; 3.47 µM with A498 renal; 3.02 µM in the assay with SK-MEL-5 melanoma; over 100 µM in the assay on SK-MEL-2 melanoma; 8.65 µM in the assay with HOP-92 NSCLC; 4.99 µM in the assay on CCRF-CEM leukemia. The TGI with TK-10 renal was 5.65 µM; with SF-539 CNS it was 3.11 µM; in the assay with SW-620 colon, 3.8 µM.
Take `Cc1noc(C)c1CCCOC1COc2ccccc2OCCOCCOc2ccccc2OC1`: the TGI in the assay with NCI-H522 lung, with UACC-257 melanoma, with A498 renal, in the assay on SK-MEL-5 melanoma, in the assay with SK-MEL-2 melanoma and in the assay with TK-10 renal was over 100 µM throughout. Also, the TGI in the assay with SF-539 CNS and in the assay with SW-620 colon was over 100 µM throughout.
`COc1ccc(-c2cn3ccsc3n2)cc1`: the TGI in the assay on NCI-H522 lung, with UACC-257 melanoma, in the assay with SK-MEL-5 melanoma, in the assay with SK-MEL-2 melanoma, with HOP-92 NSCLC and in the assay with CCRF-CEM leukemia was over 100 µM in each case. Besides, the TGI in the assay on TK-10 renal is over 100 µM; in the assay on SF-539 CNS, over 100 µM; in the assay on SW-620 colon, 34.9 µM.
As for `COc1ccc(N2C(=O)C3c4[nH]c5ccc(C)cc5c4C4CCC(C(C)(C)C)CC4C3C2=O)cc1` (configuration not stated), the TGI in the assay on NCI-H522 lung was over 100 µM; in the assay on UACC-257 melanoma it was 77.8 µM; in the assay on SK-MEL-5 melanoma it was over 100 µM; with CCRF-CEM leukemia, 16.7 µM; with TK-10 renal, 45.1 µM; with SF-539 CNS, 36.5 µM. Moreover, the TGI in the assay with SW-620 colon was found to be 69.8 µM.
In the case of `O=c1cccccc1NCCCNc1cccccc1=O`, the TGI in the assay with NCI-H522 lung, in the assay on UACC-257 melanoma, in the assay with SK-MEL-2 melanoma, with HOP-92 NSCLC, in the assay with CCRF-CEM leukemia and with SF-539 CNS was over 100 µM throughout. In the assay with SW-620 colon, this compound gave a TGI of over 100 µM.
As for `Nc1ccc(/C=C/c2ccnc3ccccc23)cc1`, the TGI amounted to 30.7 µM in the assay with NCI-H522 lung; 57.8 µM with UACC-257 melanoma; 29.6 µM in the assay on SK-MEL-5 melanoma; 37.6 µM with SK-MEL-2 melanoma; 50.9 µM with HOP-92 NSCLC; 40.7 µM in the assay with CCRF-CEM leukemia. The TGI came to 57.7 µM in the assay with TK-10 renal, 47.9 µM with SF-539 CNS and 97.7 µM in the assay with SW-620 colon.
`Cc1ccc(S(=O)(=O)n2c(-c3ccccc3)c(-c3ccccc3)c3ccccc32)cc1`: the TGI in the assay on NCI-H522 lung, in the assay with UACC-257 melanoma, in the assay on SK-MEL-5 melanoma, with SK-MEL-2 melanoma, with HOP-92 NSCLC and in the assay with CCRF-CEM leukemia was over 100 µM in each case. Also, the TGI in the assay with TK-10 renal, in the assay on SF-539 CNS and in the assay on SW-620 colon was over 100 µM each time.
Consider `Cc1ccc(/C(=C/C=C(C#N)C#N)Sc2ccc(Cl)cc2)cc1`, for which the GI50 in the assay on UACC-257 melanoma was 9.04 µM; with A498 renal, 19.4 µM; in the assay with SK-MEL-5 melanoma, 12 µM; in the assay on HOP-92 NSCLC, 15 µM; in the assay on CCRF-CEM leukemia, 2.41 µM; in the assay with TK-10 renal it was 2.12 µM. For the same compound, the results for the GI50 in the assay with SF-539 CNS and with SW-620 colon were 2.66 µM and 3.53 µM, respectively. For the same compound, the TGI is 22 µM with UACC-257 melanoma; 34.8 µM in the assay with A498 renal; 25.9 µM with SK-MEL-5 melanoma; 56.6 µM in the assay on HOP-92 NSCLC; 17.4 µM in the assay with CCRF-CEM leukemia; 7.31 µM in the assay with TK-10 renal. The TGI in the assay on SF-539 CNS was found to be 5.45 µM; in the assay with SW-620 colon, 10.7 µM.
In the case of `CC(O)C(NC(=O)C(Cc1ccccc1)NC(=O)C(NC(=O)C(CCCCN)NC(=O)C(Cc1c[nH]c2ccccc12)NC(=O)C(Cc1ccc(O)cc1)NC(=O)C(Cc1ccc(Cl)cc1)NC(=O)C(N)Cc1ccccc1)C(C)O)C(N)=O` (configuration not stated) (H-F[Phe(4-Cl)]YWKTFT-NH2; configuration not given here), the TGI in the assay with A498 renal was found to be 34 µM; with SK-MEL-2 melanoma, 39.3 µM; in the assay with CCRF-CEM leukemia, 29.3 µM; in the assay on SF-539 CNS, 42.3 µM.
For `COC(=O)C(=O)C(C(=O)C(=O)Nc1ccccc1C(N)=O)c1nc2ccc(Cl)cc2[nH]c1=O` (configuration not stated), the TGI in the assay with UACC-257 melanoma, in the assay with A498 renal, with SK-MEL-5 melanoma, with SK-MEL-2 melanoma, in the assay on HOP-92 NSCLC and in the assay with CCRF-CEM leukemia was over 100 µM each time. Besides, the TGI in the assay with SF-539 CNS and in the assay with SW-620 colon was over 100 µM each time.
For `NC(CC(=O)OCc1ccccc1)C(=O)OCc1ccccc1` (configuration not stated), the TGI in the assay on NCI-H522 lung, in the assay on UACC-257 melanoma, in the assay with SK-MEL-5 melanoma, in the assay with SK-MEL-2 melanoma, in the assay with CCRF-CEM leukemia and in the assay on TK-10 renal was over 100 µM throughout. In addition, the TGI with SF-539 CNS and in the assay with SW-620 colon was over 100 µM throughout.
